Source: patent US11702422B2, “Imidazopyridazines as modulators of IL-17” (Janssen Pharmaceutica NV, priority 2020, dated 2023)

Biological target: IL-17A(FLAG-Tagged): IL-17RA(His-Tagged) (Homo sapiens, UniProt Q16552, K93Q)
Assay: IL-17A(FLAG-Tagged): IL-17RA(His-Tagged) Binding Disruption Eu-HTRF Assay
Conditions: IL-17A/IL-17RA binding disruption, simple average if tested more than once
Excerpt: IL-17A(FLAG-Tagged): IL-17RA(His-Tagged) Binding Disruption Eu-HTRF Assay
An antibody directed against the FLAG tag of IL-17A (SEQ ID NO:1) is labeled with the HTRF donor chromophore (Europium-cryptate). IL-17A is present as a dimer that is “locked into” this quaternary structure due to the formation of loop-spanning […] disulfide bridges. The construct of IL-17RA used in the assay excludes the […] portion of the receptor and is fused to a C-terminal 10×His tag (SEQ ID NO:2). An antibody directed against the His tag of the IL-17RA chimera is labeled with the HTRF acceptor chromophore (“D2”). The fluorescence-resonance energy transfer (FRET) depends on the vicinity of the donor chromophore to the acceptor, and interruption of the binding between the IL-17A and IL-17RA causes the reduction/loss of FRET. Therefore, this assay allows to evaluate the compound effect on the binding IL-17A and IL-17RA by monitoring the fluorescence intensity of donor vs acceptor. The assay is run as described below.
40 nl of 2-fold serial diluted compound solution for total 22 dilution points is added into each well of a 1536-well, white, low-volume, non-binding plate (Greiner #782904), then 2 μl of FLAG tagged IL-17A at 2× final concentration (2.5 nM) in solution of PBS+0.01% Triton-X100 is added to each well. The assay plate is briefly centrifuged then incubated for 1 h at rt. A mixed solution is prepared containing 2×5 nM 10HIS×IL-17RA, 2×2.5 nM Eu-anti-FLAG (CISBIO), 2×5 nM D2-anti-HIS (CISBIO) in PBS+0.01% Triton-X100+200 mM Potassium Fluoride (Sigma 60238) and 2 μl of mix is added to each well of the assay plate. The plate is briefly centrifuged then incubated for 2 h at rt. The HTRF intensities at the wavelength of donor (620 nm) and acceptor (665 nm) are measured using BMG Pherastar. The ratio between intensities at two wavelengths is calculated and plotted against the compound concentration and the data is fitted to a one-site competition model to yield IC50 of the compound.

Chain of UniProt Q16552 (Q16552 with tags, fused parts or gaps K93Q): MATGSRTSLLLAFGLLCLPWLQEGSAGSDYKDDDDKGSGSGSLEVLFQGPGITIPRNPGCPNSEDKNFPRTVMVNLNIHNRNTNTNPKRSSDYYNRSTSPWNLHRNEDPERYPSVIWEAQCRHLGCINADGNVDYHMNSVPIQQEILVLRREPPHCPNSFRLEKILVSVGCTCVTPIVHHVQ

Point of comparison: `Cc1nonc1C(=O)N[C@H](c1cn2ncc([C@H](NC(=O)CCCC#N)C3CC3)cc2n1)C1CCC(F)(F)CC1` [Example 351, N—((S)-(7-((R)-(4-Cyanobutanamido)(cyclopropyl)methyl)imidazo[1,2-b]pyridazin-2-yl)(4,4-difluorocyclohexyl)methyl)-4-methyl-1,2,5-oxadiazole-3-carboxamide], IC50 2600 nM. Against it:
- Cc1nocc1C(=O)N[C@H](c1cn2ncc(C(NC(=O)CCC(F)(F)F)C(C)C)cc2n1)C1CCC(F)(F)CC1 (mixture of isomers) [Example 134, N—((S)-(4,4-Difluorocyclohexyl)(7-(2-methyl-1-(4,4,4-trifluorobutanamido)propyl)imidazo[1,2-b]pyridazin-2-yl)methyl)-3-methylisoxazole-4-carboxamide] — 14-fold lower, 180 nM
- O=C(CCC(F)(F)F)N[C@@H](c1cnn2cc([C@@H](NC(=O)C3CC3C(F)(F)F)C3CCC(F)(F)CC3)nc2c1)C1CC1 (mixture of isomers) [Example 43, (Trans-1,2)-N—((S)-(7-((R)-cyclopropyl(4,4,4-trifluorobutanamido)methyl)imidazo[1,2-b]pyridazin-2-yl)(4,4-difluorocyclohexyl)methyl)-2-(trifluoromethyl)cyclopropane-1-carboxamide] — 11-fold lower, 240 nM
- Cc1nonc1C(=O)N[C@H](c1cn2ncc([C@H](NC(=O)[C@H]3CNC[C@@H]3C(F)(F)F)C3CC3)cc2n1)C1CCC(F)(F)CC1 (relative stereo) [Example 355, N—((S)-(7-((R)-Cyclopropyl((trans-3R*,4R*)-4-(trifluoromethyl)pyrrolidine-3-carboxamido)methyl)imidazo[1,2-b]pyridazin-2-yl)(4,4-difluorocyclohexyl)methyl)-4-methyl-1,2,5-oxadiazole-3-carboxamide] — 7.3-fold higher, 19000 nM
- O=C(CCC(F)(F)F)NC(c1cnn2cc([C@@H](NC(=O)c3ccccc3)C3CCC(F)(F)CC3)nc2c1)C1CC1 (single isomer, unassigned) [Example 13, N—((S)-(7-((S*)-Cyclopropyl(4,4,4-trifluorobutanamido)methyl)imidazo[1,2-b]pyridazin-2-yl)(4,4-difluorocyclohexyl)methyl)benzamide] — 2.9-fold higher, 7600 nM

System: IL-17A-induced G-CSF production in human normal keratinocyte (NHK)
Assay: NHK Assay: IL-17A-induced G-CSF production in human normal keratinocytes
Assay type: cell-based
Conditions: Homo sapiens, Keratinocyte, 24 h, adult normal human keratinocytes, IL-17A 5 ng/mL, simple average if tested more than once
Experimental: IL-17A acts directly on keratinocytes through binding to dimeric receptor IL-17RA/RC and drives the production of a number of inflammatory mediators known to be elevated in psoriasis lesional tissue. IL-17A small molecule inhibitors that block the IL-17A to interact with IL-17R would inhibit the IL-17A signaling in its targeted cells such as keratinocytes. The compound functional activity is evaluated for its impact on IL-17A-induced G-CSF production in human normal keratinocyte (NHK).
Adult normal human keratinocytes are cultured in keratinocyte growth medium (Lonza) in a flask till reaching ˜ 90% confluence, then cells are transferred to a 384-well plate at density of 3000-4000 cell/well. Recombinant human IL-17A (Gibco PHC9174) is pre-incubated with titrated compound or DMSO for 1 h at rt then added to the cell culture plate. The final concentration of IL-17A is 5 ng/mL and DMSO is 0.2%, in the culture containing 5% FBS. Cells are cultured/treated for 24 h at 37° C. Supernatants are collected and G-CSF production is measured through HTRF technology using Human G-CSF Kit (CisBio). G-CSF concentration was extrapolated from the standard curve and IC50 is determined using GraphPad Prism. Cell viability is also evaluated using CellTiter-Glo kit (Promega) and effect of compound on cell viability is compared to DMSO control.

Point of comparison: `O=C(CCC(F)(F)F)N[C@@H](c1cnn2cc([C@@H](NC(=O)C3CC3C(F)(F)F)C3CCC(F)(F)CC3)nc2c1)C1CC1` (mixture of isomers) [Example 43, (Trans-1,2)-N—((S)-(7-((R)-cyclopropyl(4,4,4-trifluorobutanamido)methyl)imidazo[1,2-b]pyridazin-2-yl)(4,4-difluorocyclohexyl)methyl)-2-(trifluoromethyl)cyclopropane-1-carboxamide], IC50 720 nM. Against it:
- Cc1nocc1C(=O)N[C@H](c1cn2ncc(C(NC(=O)CCC(F)(F)F)C(C)C)cc2n1)C1CCC(F)(F)CC1 (mixture of isomers) [Example 134, N—((S)-(4,4-Difluorocyclohexyl)(7-(2-methyl-1-(4,4,4-trifluorobutanamido)propyl)imidazo[1,2-b]pyridazin-2-yl)methyl)-3-methylisoxazole-4-carboxamide] — 6.5-fold lower, 110 nM
- O=C(CCC(F)(F)F)N[C@@H](c1cnn2cc([C@@H](NC(=O)c3nonc3CN3CC(F)(F)C3)C3CCC(F)(F)CC3)nc2c1)C1CC1 [Example 387, N—((S)-(7-((R)-Cyclopropyl(4,4,4-trifluorobutanamido)methyl)imidazo[1,2-b]pyridazin-2-yl)(4,4-difluorocyclohexyl)methyl)-4-((3,3-difluoroazetidin-1-yl)methyl)-1,2,5-oxadiazole-3-carboxamide] — 10-fold lower, 72 nM
- CC(C)(C)Oc1nonc1C(=O)N[C@H](c1cn2ncc([C@H](NC(=O)CC3CC(F)(F)C3)C3CC3)cc2n1)C1CCC(F)(F)CC1 [Example 392, 4-(tert-Butoxy)-N—((S)-(7-((R)-cyclopropyl(2-(3,3-difluorocyclobutyl)acetamido)methyl)imidazo[1,2-b]pyridazin-2-yl)(4,4-difluorocyclohexyl)methyl)-1,2,5-oxadiazole-3-carboxamide] — 19-fold lower, 37 nM
- CC(C)c1ncsc1C(=O)N[C@H](c1cn2ncc([C@H](NC(=O)CCC(F)(F)F)C3CC3)cc2n1)C1CCC(F)(F)CC1 [Example 464, N—((S)-(7-((R)-Cyclopropyl(4,4,4-trifluorobutanamido)methyl)imidazo[1,2-b]pyridazin-2-yl)(4,4-difluorocyclohexyl)methyl)-4-isopropylthiazole-5-carboxamide] — within 1.5-fold, 630 nM
- CC(C)c1nnsc1C(=O)N[C@H](c1cn2ncc([C@H](NC(=O)CCC(F)(F)F)C3CC3)cc2n1)C1CCC(F)(F)CC1 [Example 481, N—[(S)-[7-[(R)-Cyclopropyl-(4,4,4-trifluorobutanamido)methyl]imidazo[1,2-b]pyridazin-2-yl]-(4,4-difluorocyclohexyl)methyl]-4-isopropyl-thiadiazole-5-carboxamide] — 1.5-fold lower, 470 nM

Same assay, conditions: adult normal human keratinocytes, IL-17A 5 ng/mL, 24 h, simple average if tested more than once

Point of comparison: `CC(C)n1nccc1C(=O)N[C@H](c1cn2ncc(C(NC(=O)CC3CC(F)(F)C3)C(F)F)cc2n1)C1CCC(F)(F)CC1` (single isomer, unassigned) [Example 420, N—((S)-(7-((R*)-1-(2-(3,3-Difluorocyclobutyl)acetamido)-2,2-difluoroethyl)imidazo[1,2-b]pyridazin-2-yl)(4,4-difluorocyclohexyl)methyl)-1-isopropyl-1H-pyrazole-5-carboxamide], IC50 4100 nM. Against it:
- CC(C)n1nccc1C(=O)N[C@H](c1cn2ncc(C(CC3CCC3)NC(=O)CC3CC(F)(F)C3)cc2n1)C1CCC(F)(F)CC1 (single isomer, unassigned) [Example 441, N—((S)-(7-((S*)-2-Cyclobutyl-1-(2-(3,3-difluorocyclobutyl)acetamido)ethyl)imidazo[1,2-b]pyridazin-2-yl)(4,4-difluorocyclohexyl)methyl)-1-isopropyl-1H-pyrazole-5-carboxamide] — 3.7-fold lower, 1100 nM
- CC(C)n1nccc1C(=O)N[C@H](c1cn2ncc(C(NC(=O)CC3CC(F)(F)C3)C(C)(C)O)cc2n1)C1CCC(F)(F)CC1 (single isomer, unassigned) [Example 442, N—((S)-(7-((S*)-1-(2-(3,3-Difluorocyclobutyl)acetamido)-2-hydroxy-2-methylpropyl)imidazo[1,2-b]pyridazin-2-yl)(4,4-difluorocyclohexyl)methyl)-1-isopropyl-1H-pyrazole-5-carboxamide] — 6.8-fold lower, 600 nM
- Cc1nonc1C(=O)N[C@H](c1cn2ncc(C(NC(=O)CC3CC(F)(F)C3)C(C)(C)O)cc2n1)C1CCC(F)(F)CC1 (single isomer, unassigned) [Example 443, N—((S)-(7-((S*)-1-(2-(3,3-Difluorocyclobutyl)acetamido)-2-hydroxy-2-methylpropyl)imidazo[1,2-b]pyridazin-2-yl)(4,4-difluorocyclohexyl)methyl)-4-methyl-1,2,5-oxadiazole-3-carboxamide] — 7.9-fold lower, 520 nM
- Cc1nonc1C(=O)N[C@H](c1cn2ncc(C(NC(=O)CCC(F)(F)F)C(F)F)cc2n1)C1CCC(F)(F)CC1 (single isomer, unassigned) [Example 515, N—((S)-(7-((S*)-2,2-Difluoro-1-(4,4,4-trifluorobutanamido)ethyl)imidazo[1,2-b]pyridazin-2-yl)(4,4-difluorocyclohexyl)methyl)-4-methyl-1,2,5-oxadiazole-3-carboxamide] — 29-fold lower, 140 nM
- O=C(CC1CC(F)(F)C1)NC(c1cnn2cc([C@@H](NC(=O)c3nonc3C3CC3)C3CCC(F)(F)CC3)nc2c1)C(F)F (single isomer, unassigned) [Example 518, 4-Cyclopropyl-N—((S)-(7-((R*)-1-(2-(3,3-difluorocyclobutyl)acetamido)-2,2-difluoroethyl)imidazo[1,2-b]pyridazin-2-yl)(4,4-difluorocyclohexyl)methyl)-1,2,5-oxadiazole-3-carboxamide] — within 1.5-fold, 2900 nM
- CC(C)c1oncc1C(=O)N[C@H](c1cn2ncc([C@H](NC(=O)CCC(F)(F)F)C3CC3)cc2n1)C1CCC(F)(F)CC1 [Example 482, N—[(S)-[7-[(R)-Cyclopropyl-(4,4,4-trifluorobutanamido)methyl]imidazo[1,2-b]pyridazin-2-yl]-(4,4-difluorocyclohexyl)methyl]-5-isopropyl-isoxazole-4-carboxamide] — 54-fold lower, 76 nM
